From ChEMBL document CHEMBL1201862, “PubChem BioAssay data set” (2004)
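48-hour exposure; five concentrations; linearly interpolated endpoints. Here, GI50 denotes the concentration required for 50% inhibition of growth.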 The source made the active and inactive calls. Cut-off read from the data, not from the text of the source: active = GI50 up to about 1.1 µM and inactive = higher.

Columns and labels:
Test in all cases: NCI anticancer screen, dose series, 48 h
786-0 = system: 786-0
A498 = system: A498
BT-549 = system: BT-549
DU-145 = system: DU-145
HCC 2998 = system: HCC 2998
HCT-15 = system: HCT-15
HL-60 = system: HL-60
HOP-62 = system: HOP-62
HT-29 = system: HT-29
MDA-MB-231 = system: MDA-MB-231
MDA-MB-435 = system: MDA-MB-435
MDA-N = system: MDA-N
NCI-H23 = system: NCI-H23
NCI-H522 = system: NCI-H522
OVCAR-3 = system: OVCAR-3
OVCAR-5 = system: OVCAR-5
OVCAR-8 = system: OVCAR-8
SK-MEL-2 = system: SK-MEL-2
U-251 = system: U-251
UACC-62 = system: UACC-62

SMILES	GI50 (786-0)	GI50 (A498)	GI50 (BT-549)	GI50 (DU-145)	GI50 (HCC 2998)	GI50 (HCT-15) [µM]	GI50 (HL-60)	GI50 (HOP-62)	GI50 (HT-29)	GI50 (MDA-MB-231)	GI50 (MDA-MB-435)	GI50 (MDA-N)	GI50 (NCI-H23)	GI50 (NCI-H522)	GI50 (OVCAR-3)	GI50 (OVCAR-5)	GI50 (OVCAR-8)	GI50 (SK-MEL-2)	GI50 (U-251)	GI50 (UACC-62)
Oc1cc(F)cc2cccnc12	7.29 µM (inactive)	6.58 µM (inactive)	0.968 µM (active)	5.58 µM (inactive)	26.1 µM (inactive)	0.25	0.0887 µM (active)	2.56 µM (inactive)	4.47 µM (inactive)	1.54 µM (inactive)	2.38 µM (inactive)	12.6 µM (inactive)	1.09 µM (active)	0.183 µM (active)	0.0975 µM (active)	3.29 µM (inactive)	0.324 µM (active)	16.4 µM (inactive)	0.957 µM (active)	2.73 µM (inactive)
O=C(Nc1ccc(Cl)cc1)NS(=O)(=O)c1coc2ccccc2c1=O	> 10 µM (inactive)	> 10 µM (inactive)	> 10 µM (inactive)	> 10 µM (inactive)	> 10 µM (inactive)	> 10	> 10 µM (inactive)	> 10 µM (inactive)	> 10 µM (inactive)	> 10 µM (inactive)	> 10 µM (inactive)	> 10 µM (inactive)	> 10 µM (inactive)	> 10 µM (inactive)	> 10 µM (inactive)	> 10 µM (inactive)	> 10 µM (inactive)	> 10 µM (inactive)	> 10 µM (inactive)	> 10 µM (inactive)
NC(=O)[C@H](Cc1ccc(O)cc1)NC1=C(Cl)C(=O)c2c(O)ccc(O)c2C1=O	2.02 µM (inactive)	4.4 µM (inactive)	2.47 µM (inactive)	6.53 µM (inactive)	2.37 µM (inactive)	1.79	1.04 µM (active)	> 10 µM (inactive)	2.38 µM (inactive)	2.51 µM (inactive)	2.07 µM (inactive)	1.93 µM (inactive)	3.26 µM (inactive)	1.63 µM (inactive)	2.14 µM (inactive)	8.89 µM (inactive)	2.54 µM (inactive)	9.02 µM (inactive)	2.97 µM (inactive)	1.85 µM (inactive)
COc1ccc(N2CCN(Cc3c(C(C)=O)[n+]([O-])c4ccccc4[n+]3[O-])CC2)cc1	53.5 µM (inactive)	44.7 µM (inactive)	17 µM (inactive)	> 100 µM (inactive)	> 100 µM (inactive)	47.1	> 100 µM (inactive)	16.4 µM (inactive)	45.6 µM (inactive)	31.2 µM (inactive)	32.6 µM (inactive)	36.4 µM (inactive)	10.6 µM (inactive)	36.1 µM (inactive)	> 100 µM (inactive)	68.2 µM (inactive)	28.7 µM (inactive)	54.2 µM (inactive)	45 µM (inactive)	71.6 µM (inactive)
O=P1(O)c2ccccc2CSCc2ccccc21	> 100 µM (inactive)	> 100 µM (inactive)	> 100 µM (inactive)	> 100 µM (inactive)	> 100 µM (inactive)	> 100	> 100 µM (inactive)	> 100 µM (inactive)	> 100 µM (inactive)	> 100 µM (inactive)	> 100 µM (inactive)	> 100 µM (inactive)	> 100 µM (inactive)	> 100 µM (inactive)	> 100 µM (inactive)	> 100 µM (inactive)	> 100 µM (inactive)	> 100 µM (inactive)	> 100 µM (inactive)	> 100 µM (inactive)
CCOC(=O)[C@@H]1[C@@H]2NC(=O)N[C@@]1(C)Oc1ccccc12	> 100 µM (inactive)	> 100 µM (inactive)	> 100 µM (inactive)	> 100 µM (inactive)	> 100 µM (inactive)	> 100	> 100 µM (inactive)	> 100 µM (inactive)	> 100 µM (inactive)	> 100 µM (inactive)	> 100 µM (inactive)	> 100 µM (inactive)	> 100 µM (inactive)	> 100 µM (inactive)	> 100 µM (inactive)	> 100 µM (inactive)	> 100 µM (inactive)	> 100 µM (inactive)	> 100 µM (inactive)	> 100 µM (inactive)
CC(CC[C@@H](O)C(C)(C)O)C1[C@@H](O)CC2(C)C3CC(O)C4C(C)(C)[C@@H](OC5OC(CO)C(O)C(O)C5O)CC[C@@]45C[C@@]35CC[C@]12C (stereo not given in full)	> 10 µM (inactive)	> 10 µM (inactive)	> 10 µM (inactive)	> 10 µM (inactive)	> 10 µM (inactive)	> 10	> 10 µM (inactive)	> 10 µM (inactive)	> 10 µM (inactive)	> 10 µM (inactive)	> 10 µM (inactive)	> 10 µM (inactive)	> 10 µM (inactive)	> 10 µM (inactive)	> 10 µM (inactive)	> 10 µM (inactive)	> 10 µM (inactive)	> 10 µM (inactive)	> 10 µM (inactive)	> 10 µM (inactive)
